The results in this text go back to patent publication US20250248431A1, “AGENT FOR ENHANCING SALTINESS OR SUPRESSING OFF-FLAVOR” (AJINOMOTO CO., INC., priority 2022, published 2025).

Assay [1] is described as follows: Test 9: sensory evaluation of saltiness intensity, meatballs. The assay is classed as in vivo. To be noted: effect if average score 1 point or more. The text has this:
(§1) Meatballs were produced as evaluation samples by the following steps (1) to (6).
(§2) (1) Commercially available ground pork, sodium chloride (manufactured by Naikai Salt Industries Co., Ltd.), and potassium chloride (manufactured by Uji Pharmaceutical Co., Ltd.) were mixed in the ratios shown in Table 25 below, and the mixture was stirred in a stand mixer (“Kitchen Aid”, model: KSM5WH, manufactured by FMI Corporation) until the entire mixture was uniformly mixed. The speed scale of the stand mixer was set to “1”. (2) To the mixture obtained in the above-mentioned (1) were added finely chopped onion, water, salad oil (manufactured by J-OIL MILLS, INC.), potato starch (manufactured by Minami-Tokachi Rationalized Potato Starch Factory), and β-caryophyllene solution or β-caryophyllene oxide solution in the ratios shown in Table 25 below, and the mixture was stirred in the above-mentioned stand mixer (speed scale setting: 1) until the entire mixture was uniformly mixed. The β-caryophyllene solution was prepared by dissolving β-caryophyllene (manufactured by Sigma-Aldrich) in propylene glycol to a concentration of 1000 ppm by weight, and the β-caryophyllene oxide solution was prepared by dissolving β-caryophyllene oxide (manufactured by Penta Manufacturing Company) in propylene glycol to a concentration of 1000 ppm by weight. […]

Assay [2] is described as follows: Test 9: sensory evaluation of off-taste level, meatballs. In kind it is in vivo. To be noted: effect if average score 1 point or more.
From the text: as §1, §2

As for `C=C1CC[C@H]2O[C@]2(C)CC[C@@H]2[C@@H]1CC2(C)C` [β-caryophyllene oxide], the “saltiness enhancing effect” value in assay [1] was “can enhance the saltiness”. For the same molecule, the “off-taste suppression effect” value in assay [2] is given as “suppress the off-taste of off-taste substances”.
